{"source": "paper PMC3947346", "about": "(Psychopharmacology, 2013)", "key": {"male C57BL/6 J mice [1]": {"system": "male C57BL/6 J mice", "test": "repeated drinking-in-the-dark"}, "male C57BL/6 J mice [2]": {"system": "male C57BL/6 J mice", "test": "intermittent access to ethanol"}, "male C57BL/6 J mice [3]": {"system": "male C57BL/6 J mice", "test": "blood ethanol concentrations", "assay_type": "in vivo", "settings": "17 mg/kg p.o."}, "[4]": {"test": "in vivo pharmacokinetic study, plasma", "set-up": "species or system mice", "settings": "10 mg/kg p.o."}}}
{"smiles": "O=C1CC[C@@]2(O)[C@H]3Cc4ccc(O)c5c4[C@@]2(CCN3CC2CC2)[C@H]1O5", "note": "[Naltrexone, reference compound]", "values": [{"measurement": "DID ethanol intake (gram per kilogram), effect vs vehicle", "setting": "male C57BL/6 J mice [1]; 0.1, 1, 10 mg/kg i.p., any subsequent hour (2-4 h)", "result": "no effect"}, {"measurement": "DID ethanol intake (gram per kilogram), effect vs vehicle", "setting": "male C57BL/6 J mice [1]; 0.1, 1, 10 mg/kg i.p., first hour, all doses", "result": "significantly reduced ethanol drinking"}, {"measurement": "Mean percent decrease of ethanol intake (ml)", "setting": "male C57BL/6 J mice [1]; DID, 10 mg/kg i.p., initial hour", "result": "approximately 57%"}, {"measurement": "IA ethanol drinking (gram per kilogram), effect vs saline vehicle", "setting": "male C57BL/6 J mice [2]; 10 mg/kg i.p., 2-h access", "result": "decreased ethanol drinking"}, {"measurement": "Mean percent decrease of ethanol intake (ml)", "setting": "male C57BL/6 J mice [2]; IA, 10 mg/kg i.p., 2 h", "result": "approximately 36%"}]}
{"smiles": "COc1nn(-c2ccc(F)c(NC(C)=O)c2)c(=O)n(Cc2ccc(Cl)c(F)c2)c1=O", "note": "[ADX71441]", "values": [{"measurement": "BEC after 4 h IA, difference vs vehicle treatment", "setting": "male C57BL/6 J mice [3]", "result": "not statistically different"}, {"measurement": "Average BEC (blood ethanol concentration)", "setting": "male C57BL/6 J mice [3]; after 4 h IA access, vehicle 47.73±9.18 mg/dl", "result": "35.74 ± 5.34", "unit": "mg/dL"}, {"measurement": "mean plasma concentration at 4 h as % of the mean Cmax", "setting": "[4]; 4 h", "result": 72, "unit": "%"}, {"measurement": "mean plasma concentration at 24 h as % of the mean Cmax", "setting": "[4]; 24 h", "result": 5, "unit": "%"}, {"measurement": "AUC0–8", "setting": "[4]; male C57BL/6 mice", "result": "6,970 ng h/ml"}, {"measurement": "C max ± SD", "setting": "[4]; male C57BL/6 mice", "result": "673 ± 50", "unit": "ng/mL"}, {"measurement": "Plasma concentration at 0.25 h", "setting": "[4]; male C57BL/6 mice", "result": "538 ± 51", "unit": "ng/mL"}, {"measurement": "Plasma concentration ± SD at 1 h", "setting": "[4]; male C57BL/6 mice", "result": "629 ± 61", "unit": "ng/mL"}, {"measurement": "Plasma concentration ± SD at 4 h", "setting": "[4]; male C57BL/6 mice", "result": "487 ± 62", "unit": "ng/mL"}, {"measurement": "Plasma concentration ± SD at 24 h", "setting": "[4]; male C57BL/6 mice", "result": "36.4 ± 33", "unit": "ng/mL"}, {"measurement": "T 1/2 (terminal half-life)", "setting": "[4]; male C57BL/6 mice", "result": 5.3, "unit": "h"}, {"measurement": "T max", "setting": "[4]; male C57BL/6 mice", "result": 2, "unit": "h"}, {"measurement": "AUClast ± SD", "setting": "[4]; male C57BL/6 mice, Tlast=24 h", "result": "6,700±309 ng h/ml"}, {"measurement": "motor activity, observation", "setting": "male C57BL/6 J mice [1]; 30 mg/kg p.o.", "result": "signs of mild reduction in motor activity in a few animals"}, {"measurement": "DID ethanol intake (gram per kilogram), effect vs vehicle", "setting": "male C57BL/6 J mice [1]; 3, 10, 30 mg/kg p.o., hours 1-4, post hoc only 10 and 30 mg/kg", "result": "significantly and dose-dependently reduced"}, {"measurement": "Percent change from baseline, volume of ethanol (ml)", "setting": "male C57BL/6 J mice [1]; DID, 3 mg/kg p.o., 1 h", "result": "−25.93±11.92", "unit": "%"}, {"measurement": "Percent change from baseline, volume of ethanol (ml)", "setting": "male C57BL/6 J mice [1]; DID, 3 mg/kg p.o., 2 h", "result": "−23.12±7.29", "unit": "%"}, {"measurement": "Percent change from baseline, volume of ethanol (ml)", "setting": "male C57BL/6 J mice [1]; DID, 3 mg/kg p.o., 3 h", "result": "−9.84±6.84", "unit": "%"}, {"measurement": "Percent change from baseline, volume of ethanol (ml)", "setting": "male C57BL/6 J mice [1]; DID, 3 mg/kg p.o., 4 h", "result": "−4.83±8.82", "unit": "%"}, {"measurement": "Percent change from baseline, volume of ethanol (ml)", "setting": "male C57BL/6 J mice [1]; DID, 10 mg/kg p.o., 1 h", "result": "−70.44±13.55", "unit": "%"}, {"measurement": "Percent change from baseline, volume of ethanol (ml)", "setting": "male C57BL/6 J mice [1]; DID, 10 mg/kg p.o., 2 h", "result": "−57.53±8.28", "unit": "%"}, {"measurement": "Percent change from baseline, volume of ethanol (ml)", "setting": "male C57BL/6 J mice [1]; DID, 10 mg/kg p.o., 3 h", "result": "−36.11±5.39", "unit": "%"}, {"measurement": "Percent change from baseline, volume of ethanol (ml)", "setting": "male C57BL/6 J mice [1]; DID, 10 mg/kg p.o., 4 h", "result": "−25.11±7.68", "unit": "%"}, {"measurement": "Percent change from baseline, volume of ethanol (ml)", "setting": "male C57BL/6 J mice [1]; DID, 30 mg/kg p.o., 1 h", "result": "−80.73±4.11", "unit": "%"}, {"measurement": "Percent change from baseline, volume of ethanol (ml)", "setting": "male C57BL/6 J mice [1]; DID, 30 mg/kg p.o., 2 h", "result": "−86.04±4.05", "unit": "%"}, {"measurement": "Percent change from baseline, volume of ethanol (ml)", "setting": "male C57BL/6 J mice [1]; DID, 30 mg/kg p.o., 3 h", "result": "−80.99±4.39", "unit": "%"}, {"measurement": "Percent change from baseline, volume of ethanol (ml)", "setting": "male C57BL/6 J mice [1]; DID, 30 mg/kg p.o., 4 h", "result": "−69.57±3.89", "unit": "%"}, {"measurement": "Mean percent change from vehicle baseline, ethanol intake", "setting": "male C57BL/6 J mice [1]; DID, highest dose (30 mg/kg p.o.), across the 4-h test", "result": "−70–80%"}, {"measurement": "Ethanol preference, effect", "setting": "male C57BL/6 J mice [2]; IA, 3, 10, 17 mg/kg p.o., any time point", "result": "not significantly affected"}, {"measurement": "Percent change from baseline, volume of ethanol", "setting": "male C57BL/6 J mice [2]; IA, 3 mg/kg p.o., 2 h", "result": "−3.92±12.96", "unit": "%"}, {"measurement": "Percent change from baseline, volume of ethanol", "setting": "male C57BL/6 J mice [2]; IA, 3 mg/kg p.o., 4 h", "result": "−8.21±7.51", "unit": "%"}, {"measurement": "Percent change from baseline, volume of ethanol", "setting": "male C57BL/6 J mice [2]; IA, 3 mg/kg p.o., 24 h", "result": "0.31±6.16", "unit": "%"}, {"measurement": "Percent change from baseline, volume of ethanol", "setting": "male C57BL/6 J mice [2]; IA, 10 mg/kg p.o., 2 h", "result": "−37.54±18.17", "unit": "%"}, {"measurement": "Percent change from baseline, volume of ethanol", "setting": "male C57BL/6 J mice [2]; IA, 10 mg/kg p.o., 4 h", "result": "−29.60±10.55", "unit": "%"}, {"measurement": "Percent change from baseline, volume of ethanol", "setting": "male C57BL/6 J mice [2]; IA, 10 mg/kg p.o., 24 h", "result": "−10.12±5.36", "unit": "%"}, {"measurement": "Percent change from baseline, volume of ethanol", "setting": "male C57BL/6 J mice [2]; IA, 17 mg/kg p.o., 2 h", "result": "−66.39±10.30", "unit": "%"}, {"measurement": "Percent change from baseline, volume of ethanol", "setting": "male C57BL/6 J mice [2]; IA, 17 mg/kg p.o., 4 h", "result": "−44.07±9.06", "unit": "%"}, {"measurement": "Percent change from baseline, volume of ethanol", "setting": "male C57BL/6 J mice [2]; IA, 17 mg/kg p.o., 24 h", "result": "−15.30±4.81", "unit": "%"}, {"measurement": "Percent change from baseline, volume of water", "setting": "male C57BL/6 J mice [2]; IA, 3 mg/kg p.o., 2 h", "result": "46.78±40.53", "unit": "%"}, {"measurement": "Percent change from baseline, volume of water", "setting": "male C57BL/6 J mice [2]; IA, 3 mg/kg p.o., 4 h", "result": "17.35±22.27", "unit": "%"}, {"measurement": "Percent change from baseline, volume of water", "setting": "male C57BL/6 J mice [2]; IA, 3 mg/kg p.o., 24 h", "result": "−7.73±19.28", "unit": "%"}, {"measurement": "Percent change from baseline, volume of water", "setting": "male C57BL/6 J mice [2]; IA, 10 mg/kg p.o., 2 h", "result": "55.56±45.39", "unit": "%"}, {"measurement": "Percent change from baseline, volume of water", "setting": "male C57BL/6 J mice [2]; IA, 10 mg/kg p.o., 4 h", "result": "19.72±20.18", "unit": "%"}, {"measurement": "Percent change from baseline, volume of water", "setting": "male C57BL/6 J mice [2]; IA, 10 mg/kg p.o., 24 h", "result": "9.05±18.21", "unit": "%"}, {"measurement": "Percent change from baseline, volume of water", "setting": "male C57BL/6 J mice [2]; IA, 17 mg/kg p.o., 2 h", "result": "−26.90±22.63", "unit": "%"}, {"measurement": "Percent change from baseline, volume of water", "setting": "male C57BL/6 J mice [2]; IA, 17 mg/kg p.o., 4 h", "result": "−9.62±13.96", "unit": "%"}, {"measurement": "Percent change from baseline, volume of water", "setting": "male C57BL/6 J mice [2]; IA, 17 mg/kg p.o., 24 h", "result": "10.83±11.73", "unit": "%"}, {"measurement": "IA ethanol drinking (gram per kilogram), effect vs vehicle", "setting": "male C57BL/6 J mice [2]; p.o., 4-h access period, 10 and 17 mg/kg most effective, not at 2 h", "result": "reduced ethanol drinking"}]}
